Tests used:
IDH1 R132H = IDH1 R132H (Homo sapiens (Human), UniProt O75874, R132H); experiment: Assays for IDH1 R132H Inhibitors (NADPH/aKG, resazurin detection); format: biochemical; conditions: IDH1 R132H enzyme, Table 3; read-out: R132H IC50
In short: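 Substrate mix held 8 uM NADPH plus 2 mM aKG; buffer was 20 mM Tris pH 7.5 with 150 mM NaCl, 10 mM MgCl2, 0.03% BSA. After 50 min room-temperature reaction, NADPH remaining was detected with 30 μM resazurin mix over 5 min.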

HT1080 cells = experiment: Cellular assay for IDH1m inhibitors: inhibition of 2-HG production in HT1080 cells (LC-MS); format: cell-based
Procedure: (§1) Cells (e.g., HT1080 or U87MG) are grown in T125 flasks in DMEM containing 10% FBS, 1× penicillin/streptomycin and 500 ug/mL G418. They are harvested by trypsin and seeded into 96 well white bottom plates at a density of 5000 cell/well in 100 ul/well in DMEM with 10% FBS. No cells are plates in columns 1 and 12. Cells are incubated overnight at 37 C in 5% CO2. The next day compounds are made up at 2× concentration and 100 ul are added to each cell well. The final concentration of DMSO is 0.2% and the DMSO control wells are plated in row G. The plates are then placed in the incubator for 48 hours. At 48 hours, 100 ul of media is removed from each well and analyzed by LC-MS for 2-HG concentrations. The cell plate is placed back in the incubator for another 24 hours. At 72 hours post compound addition, 10 mL/plate of Promega Cell Titer Glo reagent is thawed and mixed. The cell plate is removed from the incubator and allowed to equilibrate to room temperature. Then 100 ul of reagent is added to each well of media. The cell plate is then placed on an orbital shaker for 10 minutes and then allowed to sit at room temperature for 20 minutes. The plate is then read for luminescence with an integration time of 500 ms.

U87R132H (U87MG) cells = experiment: Cellular assay for IDH1m inhibitors: inhibition of 2-HG production in U87MG (U87R132H) cells (LC-MS); format: cell-based; conditions: 48 hours
Procedure: as §1

[1] = Homo sapiens, HT-1080, 48 hours

Chain of IDH1 R132H (O75874 whole entry R132H): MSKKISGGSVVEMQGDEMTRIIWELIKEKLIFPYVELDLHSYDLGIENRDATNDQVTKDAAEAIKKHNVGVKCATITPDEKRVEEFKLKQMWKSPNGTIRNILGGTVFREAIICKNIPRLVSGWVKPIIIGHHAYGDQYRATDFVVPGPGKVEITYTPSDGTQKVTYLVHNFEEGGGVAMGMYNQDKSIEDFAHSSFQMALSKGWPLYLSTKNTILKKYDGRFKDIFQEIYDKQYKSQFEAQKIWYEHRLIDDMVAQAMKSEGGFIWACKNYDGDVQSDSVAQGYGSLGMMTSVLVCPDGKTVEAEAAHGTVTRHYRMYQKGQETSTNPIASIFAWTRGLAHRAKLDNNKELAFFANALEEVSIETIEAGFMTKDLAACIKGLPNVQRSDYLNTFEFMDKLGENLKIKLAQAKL

Structure (SMILES) | IC50 (IDH1 R132H) [µM] | IC50 (HT1080 cells; [1]) [µM] | IC50 (U87R132H (U87MG) cells; Homo sapiens, U-87 MG) [µM] | IC50 (HT1080 cells; 48 hours) [µM] | IC50 (U87R132H (U87MG) cells) [µM]
C#CC(=O)N1CCc2c(C3CC3)nc(N3CCN(C(=O)CCOC)[C@H](C4CC4)C3)c(C#N)c2C1 [Compound 486, (R)-1-cyclopropyl-3-(3-cyclopropyl-4-(3-methoxypropanoyl)piperazin-1-yl)-6-propioloyl-5,6,7,8-tetrahydro-2,6-naphthyridine-4-carbonitrile] | < 0.5 | < 0.5 | < 0.5 |  | 
CCOC(=O)CCC(=O)N1CCN(c2nc(C3CC3)c3c(c2C#N)CC(C)(C)OC3)C[C@H]1C(C)C [Compound 456, (R)-ethyl-4-(4-(5-cyano-8-cyclopropyl-3,3-dimethyl-3,4-dihydro-1H-pyrano[3,4-c]pyridin-6-yl)-2-isopropylpiperazin-1-yl)-4-oxobutanoate] | < 0.5 | 0.5 to 1 | < 0.5 |  | 
CCOC(=O)[C@@H]1C[C@H]1C(=O)N1CCN(c2nc(C3CC3)c3c(c2C#N)CC(C)(C)OC3)C[C@H]1C(C)C [Compound 465, (1R,2R)-ethyl 2-((R)-4-(5-cyano-8-cyclopropyl-3,3-dimethyl-3,4-dihydro-1H-pyrano[3,4-c]pyridin-6-yl)-2-isopropylpiperazine-1-carbonyl)cyclopropanecarboxylate] | < 0.5 | 0.5 to 1 | < 0.5 |  | 
COCCC(=O)N1CCN(c2nc(C3CC3)c3c(c2C#N)CC(C)(C)OC3)C[C@H]1C [Compound 432, (R)-8-cyclopropyl-6-(4-(3-methoxypropanoyl)-3-methylpiperazin-1-yl)-3,3-dimethyl-3,4-dihydro-1H-pyrano[3,4-c]pyridine-5-carbonitrile] | 0.5 to 1 | 1 to 10 | 1 to 10 |  | 
COC(=O)[C@@H]1C[C@H]1C(=O)N1CCN(c2nc(C3CC3)c3c(c2C#N)CC(C)(C)OC3)C[C@H]1C(C)C [Compound 454] | < 0.5 |  |  | 0.5 to 1 | 0.5 to 1
CSCC(=O)N1CCN(c2nc(C3CC3)c3c(c2C#N)CC(C)(C)OC3)C[C@H]1C(C)C [Compound 445, (R)-8-cyclopropyl-6-(3-isopropyl-4-(2-(methylthio)acetyl)piperazin-1-yl)-3,3-dimethyl-3,4-dihydro-1H-pyrano[3,4-c]pyridine-5-carbonitrile] | < 0.5 | < 0.5 | < 0.5 |  | 
CC(C)OC(=O)CCC(=O)N1CCN(c2nc(C3CC3)c3c(c2C#N)CC(C)(C)OC3)C[C@H]1C(C)C [Compound 457, (R)-isopropyl 4-(4-(5-cyano-8-cyclopropyl-3,3-dimethyl-3,4-dihydro-1H-pyrano[3,4-c]pyridin-6-yl)-2-isopropylpiperazin-1-yl)-4-oxobutanoate] | < 0.5 | 0.5 to 1 | 0.5 to 1 |  | 
[2H]C([2H])([2H])C([2H])(C([2H])([2H])[2H])[C@@]1([2H])N(C(=O)CC(F)(F)F)C([2H])([2H])C([2H])([2H])N(c2nc(C3CC3)c3c(c2C#N)CC(C)(C)OC3)C1([2H])[2H] [Compound 477, (R)-8-cyclopropyl-3,3-dimethyl-6-(2,2,3,5,5-pentadeuterio-3-(1,1,1,3,3,3-hexadeuteriopropan-2-yl)-4-(3,3,3-trifluoropropanoyl)piperazin-1-yl)-3,4-dihydro-1H-pyrano[3,4-c]pyridine-5-carbonitrile] | < 0.5 | 1 to 10 | 1 to 10 |  | 
CC(C)[C@@H]1CN(c2nc(C3CC3)c3c(c2C#N)CC(C)(C)OC3)CCN1C(=O)CCF [Compound 437, (R)-8-cyclopropyl-6-(4-(3-fluoropropanoyl)-3-isopropylpiperazin-1-yl)-3,3-dimethyl-3,4-dihydro-1H-pyrano[3,4-c]pyridine-5-carbonitrile] | < 0.5 | 1 to 10 | 1 to 10 |  | 
COCCC(=O)N1CCN(c2nc(C3CC3)c3c(c2C#N)CC(C)(C)OC3)CC1C1CC1 (stereo not drawn) [Compound 425, 8-cyclopropyl-6-(3-cyclopropyl-4-(3-methoxypropanoyl)piperazin-1-yl)-3,3-dimethyl-3,4-dihydro-1H-pyrano[3,4-c]pyridine-5-carbonitrile] | < 0.5 | < 0.5 | < 0.5 |  | 
COCCCC(=O)N1CCN(c2nc(C3CC3)c3c(c2C#N)CC(C)(C)OC3)C[C@H]1C(C)C [Compound 424, (R)-8-cyclopropyl-6-(3-isopropyl-4-(4-methoxybutanoyl)piperazin-1-yl)-3,3-dimethyl-3,4-dihydro-1H-pyrano[3,4-c]pyridine-5-carbonitrile] | < 0.5 | 0.5 to 1 | 0.5 to 1 |  | 
CC1(C)Cc2c(C#N)c(N3CCN(C(=O)c4ccoc4)C(C4CC4)C3)nc(C3CC3)c2CO1 (stereo not drawn) [Compound 426, 8-cyclopropyl-6-(3-cyclopropyl-4-(furan-3-carbonyl)piperazin-1-yl)-3,3-dimethyl-3,4-dihydro-1H-pyrano[3,4-c]pyridine-5-carbonitrile] | < 0.5 | < 0.5 | 0.5 to 1 |  | 
[2H]C([2H])([2H])C([2H])(C([2H])([2H])[2H])C1([2H])CN(c2nc(C3CC3)c3c(c2C#N)CC(C)(C)OC3)CCN1C(=O)CC(F)(F)F (stereo in doubt) [Compound 451, (R)-8-cyclopropyl-6-(3-deuterio-3-(perdeuteriopropan-2-yl)-4-(3,3,3-trifluoropropanoyl)piperazin-1-yl)-3,3-dimethyl-3,4-dihydro-1H-pyrano[3,4-c]pyridine-5-carbonitrile] | < 0.5 | 1 to 10 | 1 to 10 |  | 
COCCC(=O)N1CCN(c2nc(C3CC3)c3c(c2C#N)CC(C)(C)OC3)CC1CC(F)(F)F (stereo not drawn) [Compound 469, 8-cyclopropyl-6-(4-(3-methoxypropanoyl)-3-(2,2,2-trifluoroethyl)piperazin-1-yl)-3,3-dimethyl-3,4-dihydro-1H-pyrano[3,4-c]pyridine-5-carbonitrile] | < 0.5 | 1 to 10 | 1 to 10 |  | 
CC(O)CC(=O)N1CCN(c2nc(C3CC3)c3c(c2C#N)CC(C)(C)OC3)C[C@H]1C1CC1 (stereo partly drawn) [Compound 442, 8-cyclopropyl-6-((3R)-3-cyclopropyl-4-(3-hydroxybutanoyl)piperazin-1-yl)-3,3-dimethyl-3,4-dihydro-1H-pyrano[3,4-c]pyridine-5-carbonitrile] | < 0.5 | 0.5 to 1 | 0.5 to 1 |  | 
C=CS(=O)(=O)N1CCc2c(C#N)c(-c3ccc(C(=O)OC)cc3F)nc(C3CC3)c2C1 [Compound 496] | < 0.5 | < 0.5 | < 0.5 |  | 
COCCC(=O)N1CCN(c2nc(C3CC3)c3c(c2C#N)CC(C)(C)OC3)C[C@H]1C1CC1 [Compound 434, (R)-8-cyclopropyl-6-(3-cyclopropyl-4-(3-methoxypropanoyl)piperazin-1-yl)-3,3-dimethyl-3,4-dihydro-1H-pyrano[3,4-c]pyridine-5-carbonitrile] | < 0.5 | < 0.5 | < 0.5 |  | 
C=CC(=O)N1CCc2c(C#N)c(N3CCN(C(=O)CCOC)[C@H](C4CC4)C3)nc(C3CC3)c2C1 [Compound 485, (R)-7-acryloyl-1-cyclopropyl-3-(3-cyclopropyl-4-(3-methoxypropanoyl)piperazin-1-yl)-5,6,7,8-tetrahydro-2,7-naphthyridine-4-carbonitrile] | < 0.5 | < 0.5 | < 0.5 |  | 
CC(C)[C@@H]1CN(c2nc(C3CC3)c3c(c2C#N)CC(C)(C)OC3)CCN1C(=O)CC1CCO1 (stereo partly drawn) [Compound 473, 8-cyclopropyl-6-((3R)-3-isopropyl-4-(2-(oxetan-2-yl)acetyl)piperazin-1-yl)-3,3-dimethyl-3,4-dihydro-1H-pyrano[3,4-c]pyridine-5-carbonitrile] | < 0.5 | < 0.5 | 0.5 to 1 |  | 
[2H]C([2H])([2H])C([2H])(C([2H])([2H])[2H])[C@@]1([2H])N(C(=O)CCOC)C([2H])([2H])C([2H])([2H])N(c2nc(C3CC3)c3c(c2C#N)CC(C)(C)OC3)C1([2H])[2H] [Compound 441, (R)-8-cyclopropyl-6-(2,2,3,3,5,6,6-heptadeuterio-4-(3-methoxypropanoyl)-5-(perdeuteriopropan-2-yl)piperazin-1-yl)-3,3-dimethyl-3,4-dihydro-1H-pyrano[3,4-c]pyridine-5-carbonitrile] | < 0.5 | < 0.5 | < 0.5 |  | 
[2H]C1([2H])CN(c2nc(C3CC3)c3c(c2C#N)CC(C)(C)OC3)C([2H])([2H])C([2H])(C([2H])(C([2H])([2H])[2H])C([2H])([2H])[2H])N1C(=O)CC(F)(F)F [Compound 476, (R)-8-cyclopropyl-3,3-dimethyl-6-(2,2,3,5,5-pentadeuterio-3-(1,1,1,3,3,3-hexadeuteriopropan-2-yl)-4-(3,3,3-trifluoropropanoyl)piperazin-1-yl)-3,4-dihydro-1H-pyrano[3,4-c]pyridine-5-carbonitrile] | < 0.5 | 1 to 10 | 1 to 10 |  | 

From US9662327B2 (AGIOS PHARMACEUTICALS, INC, priority 2011, dated 2017)
